Data as given in ChEMBL document CHEMBL4196243, “Antileishmanial Carbasugars from Geosmithia langdonii” (J Nat Prod, 2018).

These compounds were tested on Leishmania donovani (assay: Antileishmanial activity against Leishmania donovani promastigotes by alamar blue dye based fluorescence assay).
Type: functional, organism-based
In the case of `C[C@@H]1C[C@H](OC(=O)c2cc(O)ccc2O)[C@H](O)[C@H](O)[C@@H]1O`, the IC50 is reported as 100 µM and the IC90 is reported as over 134 µM. `C[C@@H]1C[C@H](O)[C@H](O)[C@H](O)[C@@H]1OCc1cc(O)ccc1O` showed an IC50 of 57 µM and an IC90 of 119 µM. With `C[C@@H]1[C@H](O)[C@@H](C)/C=C/C=C/C=C/C=C/C=C/C=C/C=C/[C@H](O[C@@H]2O[C@H](C)[C@@H](O)[C@H](N)[C@@H]2O)C[C@@H]2O[C@](O)(C[C@@H](O)C[C@@H](O)[C@H](O)CC[C@@H](O)C[C@@H](O)CC(=O)O[C@H]1C)C[C@H](O)[C@H]2C(=O)O` [AMPHOTERICIN B] the IC90 was 0.4 µM. `N=C(N)c1ccc(OCCCCCOc2ccc(C(=N)N)cc2)cc1` [PENTAMIDINE] was tested, and the IC50 was 9 µM and the IC90 was 17 µM.
